tested on: purified NO synthase from pig cerebellum or from pig liver; test: Activity assay of purified NOS (3H-L-arginine to 3H-L-citrulline conversion); type: biochemical; settings: substance 100 μM, in the presence of 2 μM tetrahydrobiopterin, 15 min at 37° C.
Procedure: The inhibition of the activity of purified nitric oxide synthase (NOS) by compounds of the general formula I can be determined as follows.
In this activity assay the L-citrulline which is a coproduct of the formation of NO by purified NOS is quantitatively measured. ^3H-radiolabeled L-arginine is employed as substrate of the enzyme reaction and is converted into ^3H-L-citrulline and NO. After completion of the enzyme incubation, generated L-citrulline is removed from unused L-arginine by ion exchange chromatography from the reaction mixture; the ^3H activity measured by liquid scintillation then is corresponds to the amount of L-citrulline, which is a direct measure of the activity of NOS.
The basic medium for carrying out the enzyme reaction is TE buffer (triethanolamine, EDTA, pH 7.0).
The final volume of each incubation is 100 μl. The reaction mixture is obtained by mixing the following 6 components on ice: • 1. “REA-Mix” (pH 7.0) which contains triethanolamine, calcium chloride, magnesium chloride, EDTA, L-arginine, calmodulin and flavin adenine dinucleotide (FAD); • 2. freshly prepared stock solution of β-nicotinamide adenine dinucleotide phosphate, reduced form (NADPH); • 3. (6R)-5,6,7,8-tetrahydro-L-biopterin dihydro-chloride stock solution (BH4) or —for experiments without BH4-instead TE buffer; • 4. purified NO synthase from pig cerebellum or from pig liver; • 5.
After mixing of the components on ice, the reaction mixture was immediately incubated in a water bath at 37° C. for 15 minutes. […] After this incubation time, the reaction was stopped by addition of 900 μl of ice-cold “stop buffer” (20 mM sodium acetate, 2 mM EDTA, pH 5.5), and the mixture (total volume now 1.0 ml) was placed on ice. To remove the unreacted ^3H-L-arginine, the mixture was loaded onto an ion exchange column with 0.8 ml of Dowex AG 50 WX-8 (100-200 mesh) which has previously been washed and equilibrated with 2 ml of stop buffer. After loading of the sample, the column was eluted twice with 1 ml of water each time. The flow-through of the sample and the eluate were collected in scintillation vessels and […] (total volume 3 ml). 9 ml of scintillator solution were added to the 3 ml of aqueous measurement solution, and the homogeneous mixture was measured in a Tricarb 2500 TR (Packard) liquid scintillation counter for 1 minute for each sample. […] Each substance was tested for an antagonistic effect in a concentration of 100 μM in the presence of 2 μM tetrahydrobiopterin, and for an agonistic effect on NOS in the absence of tetrahydrobiopterin.
All incubations were carried out on triplicates. Each experiment was repeated three times with different enzyme preparations.

| Compound | Remaining activity (% of Vmax) |
| --- | --- |
| CCCN(CCC)c1nc(N)nc2ncc(-c3ccccc3)nc12.O.O.O [Example 23, 2-amino-4-(di-n-propylamino)-6-phenylpteridine trihydrate] | 77 ± 16 % of Vmax |
| 2-amino-4-(4-methylpiperazin-1-yl)-6-phenyl-pteridine hemihydrate [Example 35] | 83 ± 1 % of Vmax |
| COc1ccc(C2CNc3nc(N)nc(N4CCOCC4)c3N2)cc1OC.Cl.O (stereo not shown) [Example 41, 2-amino-4-(morpholin-4-yl)-6-(3,4-dimethoxy-phenyl)-5,6,7,8-tetrahydropteridine hydrochloride hydrate] | 68 ± 11 % of Vmax |
| COc1ccc(-c2cnc3nc(N)nc(N4CCN(C)CC4)c3n2)cc1OC.O.O [Example 38, 2-amino-4-(4-methylpiperazin-1-yl)-6-(3,4-di-methoxyphenyl)pteridine dihydrate] | 99 ± 16 % of Vmax |
| CCCN(CCC)c1nc(N)nc2ncc(-c3ccc(Cl)cc3)nc12.O.O.O [Example 24, 2-amino-4-(di-n-propylamino)-6-(4-chlorophenyl)-pteridine trihydrate] | 7 ± 4 % of Vmax |
| CN(C)c1nc(N)nc2ncc(-c3ccccc3)nc12 [Example 11, 2-amino-4-(dimethylamino)-6-phenylpteridine] | 92 ± 11 % of Vmax |
| 2-amino-4-(morpholin-4-yl)-6-phenyl-5,6,7,8-tetra-hydropteridine dihydrochloride hemihydrate [Example 42] | 51 ± 3 % of Vmax |
| 2-amino-4-(morpholin-4-yl)-6-(4-methoxyphenyl)-5,6,7,8-tetrahydropteridine hydrochloride hemi-hydrate [Example 40] | 66 ± 14 % of Vmax |
| CCN(CC)c1nc(N)nc2ncc(-c3ccccc3)nc12.O [Example 15, 2-amino-4-(diethylamino)-6-phenylpteridine hydrate] | 75 ± 3 % of Vmax |
| 2-amino-4-(4-methylpiperazin-1-yl)-6-(4-chloro-phenyl)pteridine hemihydrate [Example 36] | 64 ± 9 % of Vmax |
| 2-amino-4-(4-methylpiperazin-1-yl)-6-(4-methoxy-phenyl)pteridine hemihydrate [Example 37] | 84 ± 5 % of Vmax |
| COc1ccc(-c2cnc3nc(N)nc(N(C)C)c3n2)cc1 [Example 13, 2-amino-4-(dimethylamino)-6-(4-methoxyphenyl)-pteridine] | 13 ± 4 % of Vmax |
| COc1ccc(-c2cnc3nc(N)nc(N4CCCC4)c3n2)cc1.O.O [Example 39, 2-amino-4-(pyrrolidin-1-yl)-6-(4-methoxyphenyl)-pteridine dihydrate] | 30 ± 5 % of Vmax |
| Nc1nc(N(Cc2ccccc2)Cc2ccccc2)c2nc(-c3ccccc3)cnc2n1.O.O [Example 19, 2-amino-4-(dibenzylamino)-6-phenylpteridine dihydrate] | 0 ± 0.05 % of Vmax |
| CCCN(CCC)c1nc(N)nc2ncc(-c3ccc(OC)cc3)nc12.O [Example 25, 2-amino-4-(di-n-propylamino)-6-(4-methoxyphenyl)-pteridine hydrate] | 25 ± 12 % of Vmax |
| Cc1ccc(-c2cnc3nc(N)nc(N(C)C)c3n2)cc1 [Example 12, 2-amino-4-(dimethylamino)-6-(4-methylphenyl)-pteridine] | 15 ± 7 % of Vmax |
| CCN(CC)c1nc(N)nc2ncc(-c3ccc(OC)cc3)nc12.O [Example 17, 2-amino-4-(diethylamino)-6-(4-methoxyphenyl)-pteridine hydrate] | 2 ± 0.1 % of Vmax |
| COc1ccc(-c2cnc3nc(N)nc(N4CCOCC4)c3n2)cc1OC.O.O.O [Example 30, 2-amino-4-(morpholin-4-yl)-6-(3,4-dimethoxy-phenyl)pteridine trihydrate] | 5 ± 3 % of Vmax |
| CCN(CC)c1nc(N)nc2ncc(-c3ccc(OC)c(OC)c3)nc12.O [Example 18, 2-amino-4-(diethylamino)-6-(3,4-dimethoxyphenyl)-pteridine hydrate] | 23 ± 4 % of Vmax |
| Nc1nc(N2CCOCC2)c2nc(-c3ccccc3)cnc2n1.O [Example 27, 2-amino-4-(morpholin-4-yl)-6-phenylpteridine hydrate] | 41 ± 8 % of Vmax |
| Cl.Nc1nc(N2CCOCC2)c2nc(-c3ccc(Cl)cc3)cnc2n1.O [Example 28, 2-amino-4-(morpholin-4-yl)-6-(4-chlorophenyl)-pteridine hydrochloride hydrate] | 3 ± 1.5 % of Vmax |
| Nc1nc(N2CCCCC2)c2nc(-c3ccccc3)cnc2n1.O.O [Example 31, 2-amino-4-(piperidin-1-yl)-6-phenylpteridine dihydrate] | 0 ± 0.05 % of Vmax |
| Nc1nc(N2CCCCC2)c2nc(-c3ccc(Cl)cc3)cnc2n1.O.O [Example 32, 2-amino-4-(piperidin-1-yl)-6-(4-chlorophenyl)-pteridine dihydrate] | 3 ± 1 % of Vmax |
| Cl.Cl.Cl.Nc1nc2c(c(N3CCCCC3)n1)NC(c1ccc(Cl)cc1)CN2.O (stereo not shown) [Example 43, 2-amino-4-(piperidin-1-yl)-6-(4-chlorophenyl)-5,6,7,8-tetrahydropteridine trihydrochloride hydrate] | 0 % of Vmax |
| CCN(CC)c1nc(N)nc2ncc(-c3ccc(Cl)cc3)nc12.O.O [Example 16, 2-amino-4-(diethylamino)-6-(4-chlorophenyl)-pteridine dihydrate] | 42 ± 10 % of Vmax |
| CCCN(CCC)c1nc(N)nc2ncc(-c3ccc(OC)c(OC)c3)nc12.O [Example 26, 2-amino-4-(di-n-propylamino)-6-(3,4-dimethoxy-phenyl)pteridine hydrate] | 0 % of Vmax |

tested on: NO synthase; test: not given; settings: literature reports on BH4 analogues; cited from earlier work

| Compound | effect on NO production / NO synthase |
| --- | --- |
| Nc1nc(=O)c2[nH]c(=O)cnc2[nH]1 [xanthopterin] | no significant effects |
| C[C@H](O)[C@H](O)C1=Nc2c(nc(N)[nH]c2=O)NC1 [dihydrobiopterin] | able to partly replace the natural cofactor |
| Nc1nc2[nH]c(=O)cnc2c(=O)[nH]1 [isoxanthopterin] | no significant effects |
| Nc1nc2c(c(=O)[nH]1)NC(C(O)C(O)CO)CN2 (stereo not shown) [tetrahydro-neopterin] | no significant effects |
| Nc1nc2nccnc2c(=O)[nH]1 [pterin] | no significant effects |
| Biopterin | no significant effects |
| CC(O)C(O)C1CNc2c(nc(N)[nH]c2=O)N1 (stereo not shown) [7-R/S-BH4] | able to partly replace the natural cofactor |
| Nc1nc2ncc(CNc3ccc(C(=O)N[C@@H](CCC(=O)O)C(=O)O)cc3)nc2c(=O)[nH]1 [folic acid] | no significant effects |
| Nc1nc2c(c(=O)[nH]1)N=C(CNc1ccc(C(=O)N[C@@H](CCC(=O)O)C(=O)O)cc1)CN2 [dihydrofolic acid] | no significant effects |
| Nc1nc2c(c(=O)[nH]1)N=C([C@H](O)[C@H](O)CO)CN2 [dihydroneopterin] | no significant effects |
| CC1CNc2nc(N)[nH]c(=O)c2C1 (stereo not shown) [5-deaza-6-methyl-5,6,7,8-tetrahydropterin] | weak inhibition |

From US6844343B1, “N-substituted 4-aminopteridines, synthesis and use thereof as pharmaceutical agent” (Vasopharm Biotech GmbH, priority 1999, dated 2005)
